ChEMBL document CHEMBL4819002, “Design, synthesis, evaluation, and SAR of 4-phenylindoline derivatives, a novel class of small-molecule inhibitors of the programmed cell death-1/ programmed cell death-ligand 1 (PD-1/PD-L1) interaction” (Eur J Med Chem, 2021)
Active and inactive are the calls of the source. The rule behind the calls is not given here.

Key:
[1] = molecular target: T1, Programmed cell death protein 1/Programmed cell death 1 ligand 1 (Homo sapiens, UniProt Q9NZQ7); test: Inhibition of PD1 (unknown origin)/PDL1 (unknown origin) protein-protein interaction by HTRF assay; format: protein-complex assay
T1 sequence (Q15116 whole entry): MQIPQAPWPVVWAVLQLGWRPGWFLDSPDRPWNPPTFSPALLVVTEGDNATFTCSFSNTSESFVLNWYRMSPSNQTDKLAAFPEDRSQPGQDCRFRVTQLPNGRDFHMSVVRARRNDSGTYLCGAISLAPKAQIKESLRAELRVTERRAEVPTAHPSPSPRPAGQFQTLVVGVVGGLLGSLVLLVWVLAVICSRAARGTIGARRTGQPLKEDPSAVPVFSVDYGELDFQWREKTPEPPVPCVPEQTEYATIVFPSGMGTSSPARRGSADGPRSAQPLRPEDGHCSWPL
T1 sequence (Q9NZQ7 whole entry): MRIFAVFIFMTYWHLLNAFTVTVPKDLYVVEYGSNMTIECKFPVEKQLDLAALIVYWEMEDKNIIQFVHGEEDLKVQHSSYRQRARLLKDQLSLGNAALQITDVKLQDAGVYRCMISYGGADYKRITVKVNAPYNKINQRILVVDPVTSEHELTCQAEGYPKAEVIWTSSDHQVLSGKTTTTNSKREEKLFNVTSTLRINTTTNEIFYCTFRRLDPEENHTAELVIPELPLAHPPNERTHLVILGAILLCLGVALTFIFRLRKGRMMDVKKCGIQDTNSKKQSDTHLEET

[2] = molecular target: T1, Programmed cell death protein 1/Programmed cell death 1 ligand 1; test: Inhibition of PD-1/PD-L1 interaction in CHO cells expressing PD-Ll/TCR cocultured with human Jurkat cells expressing PD-1 assessed as activation of effector Jurkat T cells incubated for 6 hrs by luciferase reporter gene assay; format: cell-based
[3] = Cytotoxicity against CHO cells expressing PD-Ll /TCR cocultured with human Jurkat cells expressing PD-1 measured after 24 hrs by Cell Titer-Glo based luminescent cell viability assay; format: functional
[4] = molecular target: T2, Programmed cell death protein 1/Programmed cell death 1 ligand 1 (Homo sapiens) (UniProt Q15116+Q9NZQ7); test: Inhibition of PD-1/PD-L1 interaction in CHO cells expressing PD-Ll/TCR cocultured with human Jurkat cells expressing PD-1 assessed as maximum relative luminescence intensity value incubated for 6 hrs by luciferase reporter gene assay; format: cell-based
[5] = molecular target: T2, Programmed cell death protein 1/Programmed cell death 1 ligand 1 (Homo sapiens); test: Inhibition of PD-1/PD-L1 interaction in CHO cells expressing PD-Ll/TCR cocultured with human Jurkat cells expressing PD-1 assessed as maximum relative luminescence intensity value upto 10 uM incubated for 6 hrs by luciferase reporter gene assay; format: cell-based; conditions: dose microM <=10, time 6.0 hrs
[6] = molecular target: T2, Programmed cell death protein 1/Programmed cell death 1 ligand 1 (Homo sapiens); test: Inhibition of PD-1/PD-L1 interaction in CHO cells expressing PD-Ll/TCR cocultured with human Jurkat cells expressing PD-1 assessed as maximum relative luminescence intensity value at > 3.3 uM incubated for 6 hrs by luciferase reporter gene assay; format: cell-based; conditions: dose microM >3.3, time 6.0 hrs

| Compound | IC50 [1] | other results |
| --- | --- | --- |
| CC(=O)NCCNCc1cc(Cl)c(OCc2cccc(-c3cccc4c3CCN4CCCN3CCC(F)C3)c2C)cc1OCc1cccc(C#N)c1 (stereo unspecified) | 202 nM |  |
| CC(=O)NCCNCc1cc(Cl)c(OCc2cccc(-c3cccc4c3CCN4CCCN3CCOCC3)c2C)cc1OCc1cccc(C#N)c1 | 185 nM |  |
| Cc1c(COc2cc(OCc3cncc(C#N)c3)c(CN[C@@H](CO)C(=O)O)cc2Cl)cccc1-c1cccc2c1CCN2CCCN1CCC(O)CC1 | 12 nM | EC50 [2]: 2900 nM; GI50 [3]: > 20000 nM; Activity [4]: Dose-Dependent Effect; RLU [5]: 1710 |
| COC(=O)[C@H](CO)NCc1cc(Cl)c(OCc2cccc(-c3cccc4c3CCN4CCCN3CCC(O)CC3)c2C)cc1OCc1cncc(C#N)c1 | 41 nM |  |
| CC(=O)NCCNCc1cc(Cl)c(OCc2cccc(-c3cccc4c3CCN4CCCN3CCC(O)CC3)c2C)cc1OCc1cncc(C#N)c1 | 17 nM | EC50 [2]: 430 nM; GI50 [3]: 16900 nM; Activity [4]: Dose-Dependent Effect; RLU [5]: 1910 |
| CC(=O)NCCNCc1cc(Cl)c(OCc2cccc(-c3cccc4c3CCN4CCCN3CCC(O)CC3)c2C)cc1OCc1cccc(C#N)c1 | 58 nM |  |
| CC(=O)NCCNCc1cc(Cl)c(OCc2cccc(-c3cccc4c3CCN4CCCN3CCC(O)CC3)c2C)cc1OCc1cccnc1 | 79 nM |  |
| CCN1CCc2c(-c3cccc(COc4cc(OCc5cccc(C#N)c5)c(CNCCNC(C)=O)cc4Cl)c3C)cccc21 | 743 nM |  |
| CCCN1CCc2c(-c3cccc(COc4cc(OCc5cccc(C#N)c5)c(CNCCNC(C)=O)cc4Cl)c3C)cccc21 | 1730 nM |  |
| CC(=O)NCCNCc1cc(Cl)c(OCc2cccc(-c3cccc4c3CCN4CCCN3CCC(O)CC3)c2C)cc1OCc1ccccc1 | 446 nM |  |
| CC(=O)NCCNCc1cc(Cl)c(OCc2cccc(-c3cccc4c3CCN4CCCN3CCC(O)CC3)c2C)cc1OCC1CCCCC1 | 1130 nM |  |
| CC(=O)NCCNCc1cc(Cl)c(OCc2cccc(-c3ccc4c(c3)OCCO4)c2C)cc1OCc1cccc(C#N)c1 | 40 nM | EC50 [2]: > 3300 nM; GI50 [3]: 6300 nM; Activity [6]: inactive |
| CC(=O)NCCNCc1cc(Cl)c(OCc2cccc(-c3cccc4c3CCN4CCN3CCC(O)CC3)c2C)cc1OCc1cccc(C#N)c1 | 322 nM |  |
| CC(=O)NCCNCc1cc(Cl)c(OCc2cccc(-c3cccc4c3CCN4CCCN3CCCC3)c2C)cc1OCc1cccc(C#N)c1 | 77 nM |  |
| CC(=O)NCCNCc1cc(Cl)c(OCc2cccc(-c3cccc4c3CCN4C)c2C)cc1OCc1cccc(C#N)c1 | 878 nM |  |
| CCN(CC)CCCN1CCc2c(-c3cccc(COc4cc(OCc5cccc(C#N)c5)c(CNCCNC(C)=O)cc4Cl)c3C)cccc21 | 114 nM |  |
| CC(=O)NCCNCc1cc(Cl)c(OCc2cccc(-c3cccc4c3CCN4CCCN3CCC(F)CC3)c2C)cc1OCc1cccc(C#N)c1 | 878 nM |  |
| CC(=O)NCCNCc1cc(Cl)c(OCc2cccc(-c3cccc4c3CCN4CCCN3CCC3)c2C)cc1OCc1cccc(C#N)c1 | 98 nM |  |
| CC(=O)NCCNCc1cc(Cl)c(OCc2cccc(-c3cccc4c3CCN4)c2C)cc1OCc1cccc(C#N)c1 | 1360 nM |  |
| CC(=O)NCCNCc1cc(Cl)c(OCc2cccc(-c3cccc4c3CCN4CCCn3cccc3)c2C)cc1OCc1cccc(C#N)c1 | 2470 nM |  |
| Cc1c(COc2cc(OCc3cncc(C#N)c3)c(CNC(CO)CO)cc2Cl)cccc1-c1cccc2c1CCN2CCCN1CCC(O)CC1 | 38 nM |  |
| CC(=O)NCCNCc1cc(Cl)c(OCc2cccc(-c3cccc4c3CCN4CCCN3CCC(O)C3)c2C)cc1OCc1cccc(C#N)c1 (stereo unspecified) | 63 nM |  |
| COCCCN1CCc2c(-c3cccc(COc4cc(OCc5cccc(C#N)c5)c(CNCCNC(C)=O)cc4Cl)c3C)cccc21 | 905 nM |  |
| CC(=O)NCCNCc1cc(Cl)c(OCc2cccc(-c3cccc4c3CCN4CCCN3CCCCC3)c2C)cc1OCc1cccc(C#N)c1 | 197 nM |  |
| Cc1c(COc2cc(OCc3cncc(C#N)c3)c(CNCCO)cc2Cl)cccc1-c1cccc2c1CCN2CCCN1CCC(O)CC1 | 31 nM |  |
